PMC7367873, “Dissecting the sequence determinants for dephosphorylation by the catalytic subunits of phosphatases PP1 and PP2A” (Nature Communications, 2020)
“Also recorded” adds a separate entry of the source.

Legend:
[1] = test system: GAB2/GFP-14-3-3β interaction; experiment: GAB2/14-3-3 binding assay (GFP-14-3-3β pull-down, Western blot); parameters: species or system human
Method: pEGFP(C1)-14-3-3β or pCMV-GAB2-3FLAG was transfected into HeLa Kyoto cells as described in the respective section for 24 h. Cells were incubated with or w/o 20 nM Calyculin A (# 9902 S, Cell Signaling Technology) in complete growth media for 12 min. Cells were washed twice on ice with cold PBS and after addition of 500 µL lysis buffer (100 mM NaCl, 10 mM Tris, 0.1% IGEPAL, 1 mM EDTA, 1 mM EGTA, 20 nM Calyculin A, 1x cOmplete Mini protease inhibitor cocktail (Sigma), 2 mM DTT, 2 mM MnCl2) cells were scraped from plates, lysed by 10 pushes through an injection needle and the insoluble fraction was pelleted by centrifugation (10 min, 10^4 rcf, 4 °C). Supernatants were then subjected to incubation with 1 µM recombinant PP1c (if not indicated otherwise) or buffer for 1 h at 30 °C. […] Next, we subjected samples to immunoprecipitation/pull-down using 25 µL of α-FLAG M2 magnetic bead slurry (Sigma-Aldrich) or an equal volume of bead-coupled α-GFP nanobodies (EMBL PEPcore Core Facility) for 2 h at 4 °C. Beads were then washed three times with lysis buffer and samples were eluted in 1x SDS sample buffer by heating to 95 °C for 10 min and further analyzed by SDS PAGE for 14-3-3/GAB2 association and phosphorylation status of GAB2-pS210.
For SDS-PAGE, samples were loaded on NuPAGE™ 4-12% Bis-Tris protein gels (Invitrogen) and gel electrophoresis was performed at 180 V constant in 1x MOPS buffer. Samples were transferred onto CN blotting membranes (0.45 µm, neoLab) by wet blotting. Membranes were stained using Ponceau, followed by blocking with Tris-buffered saline with 0.1% Tween (TBS-T) containing 5% (w/v) non-fat milk for 45 min at room temperature. After three washes (5 min), membranes were then incubated with the following antibodies in TBS-T with 5% BSA overnight at 4 °C: α-GFP (1:2000, Abcam, ab6556), α-GAB2 (1:1000, CST, #3239), α-GAB2-pS210 (1:250, Symansis, customized purification), α-FLAG (1:1000, M2, Sigma-Aldrich, F3165), α-pan14-3-3 (1:500, SCBT, sc-629), α-PP1 (1:1000, SCBT, sc-7482), α-PP2A (1:1000, SCBT, sc-130237) or α-6His (1:2000, Abcam, ab9108). Afterwards blots were washed three times in TBS-T and incubated with goat anti-mouse IgG-peroxidase conjugate (1:2500, Sigma, A0168), donkey anti-rabbit IgG-horseradish peroxidase (HRP) conjugate (1:2500, GE Healthcare, GENA934), or rabbit anti-sheep IgG (H + L) HRP conjugate (1:2500, Thermo Fisher Scientific, 61-8620) for 2 h at room temperature. […] All blots were quantified using raw images and ImageLab software (v6.0.1, BioRad): Files were imported and analyzed without further modifications. […] The quantification was exported from the analysis table and measurements of background adjusted band volumes where used for further normalization steps and graphical depiction. […]

[2] = test system: GAB2-pS210; experiment: In vitro dephosphorylation of GAB2-pS210 (Western blot); type: biochemical, human; conditions: GAB2-pS210 relative to GAB2, Calyculin A 20 nM 12 min in HeLa Kyoto cells, recombinant PP1c 1 µM, 1 h at 30 °C in lysate
Method: pEGFP(C1)-14-3-3β or pCMV-GAB2-3FLAG was transfected into HeLa Kyoto cells as described in the respective section for 24 h. Cells were incubated with or w/o 20 nM Calyculin A (# 9902 S, Cell Signaling Technology) in complete growth media for 12 min. Cells were washed twice on ice with cold PBS and after addition of 500 µL lysis buffer (100 mM NaCl, 10 mM Tris, 0.1% IGEPAL, 1 mM EDTA, 1 mM EGTA, 20 nM Calyculin A, 1x cOmplete Mini protease inhibitor cocktail (Sigma), 2 mM DTT, 2 mM MnCl2) cells were scraped from plates, lysed by 10 pushes through an injection needle and the insoluble fraction was pelleted by centrifugation (10 min, 10^4 rcf, 4 °C). […] Beads were then washed three times with lysis buffer and samples were eluted in 1x SDS sample buffer by heating to 95 °C for 10 min and further analyzed by SDS PAGE for 14-3-3/GAB2 association and phosphorylation status of GAB2-pS210.
For SDS-PAGE, samples were loaded on NuPAGE™ 4-12% Bis-Tris protein gels (Invitrogen) and gel electrophoresis was performed at 180 V constant in 1x MOPS buffer. […] All blots were quantified using raw images and ImageLab software (v6.0.1, BioRad): Files were imported and analyzed without further modifications. […] The quantification was exported from the analysis table and measurements of background adjusted band volumes where used for further normalization steps and graphical depiction. […]

“PP1c: recombinant catalytic subunit of PP1” was tested, and the “interaction of GAB2 with overexpressed GFP-14-3-3β” value ([1]; Calyculin A 20 nM in cells, recombinant PP1c in lysate 1 h at 30 °C, PP1c-concentration-dependent, three independent experiments) was “decreased upon addition of recombinant PP1c in a PP1c–concentration-dependent manner; also recorded: less associated with endogenous GAB2”, the “interaction of GAB2 with GFP-14-3-3β, PP1c pre-inhibited” value ([1]; recombinant PP1c mixed with equimolar Calyculin A for 5–10 min before addition to lysate) was “but not if recombinant PP1c was inhibited prior to treatment” and the “p-level of GAB2 pS210” value [2] was “decrease in the p-level”.
